According to article PMC4607586 (Bioorganic & medicinal chemistry letters, 2015):

Key:
HIV-1 LAI = assay: Antiviral assay using MT-2 cells exposed to HIV-1 LAI; assay type: cell-based
HIV-1 protease = HIV-1 protease (Human immunodeficiency virus type 1 group M subtype B, UniProt P04585); assay: HIV-1 protease enzyme inhibition assay; assay type: biochemical; details: for improvement of protease inhibitory activity over 5b: relative to N-methyl-N-propyl amide 5b

| SMILES | antiviral activity (in words) (HIV-1 LAI) | enhanced potency over 5a (enzyme inhibition) (HIV-1 protease; relative to 5a) [fold] | improvement of protease inhibitory activity over 5b (HIV-1 protease) |
| --- | --- | --- | --- |
| CCCN(CCC)C(=O)c1cccc(C(=O)N[C@@H](Cc2ccccc2)[C@H](O)CN(CC(C)C)S(=O)(=O)c2ccc(OC)cc2)c1 [Inhibitor 5e] | no appreciable antiviral activity |  |  |
| COC[C@H]1C[C@@H](O)CN1C(=O)c1cccc(C(=O)N[C@@H](Cc2ccccc2)[C@H](O)CN(CC(C)C)S(=O)(=O)c2ccc(OC)cc2)c1 [Inhibitor 5k] | moderate antiviral activity |  |  |
| CCCN(C)C(=O)c1cccc(C(=O)N[C@@H](Cc2ccccc2)[C@H](O)CN(CC(C)C)S(=O)(=O)c2ccc(OC)cc2)c1 [Inhibitor 5b] |  | 5 |  |
| COC[C@H]1C[C@H](O)CN1C(=O)c1cccc(C(=O)N[C@@H](Cc2ccccc2)[C@H](O)CN(CC(C)C)S(=O)(=O)c2ccc(OC)cc2)c1 [Inhibitor 5i] | moderate antiviral activity |  |  |
| COc1ccc(S(=O)(=O)N(CC(C)C)C[C@@H](O)[C@H](Cc2ccccc2)NC(=O)c2cccc(C(=O)N3CCN(C)CC3)c2)cc1 [Inhibitor 5g] | very good antiviral activity |  | over 10 fold |
| COc1ccc(S(=O)(=O)N(CC(C)C)C[C@@H](O)[C@H](Cc2ccccc2)NC(=O)c2cccc(C(=O)N3CCOCC3)c2)cc1 [Inhibitor 5f] | very good antiviral activity |  | over 10 fold |
| COC[C@@H]1C[C@@H](O)CN1C(=O)c1cccc(C(=O)N[C@@H](Cc2ccccc2)[C@H](O)CN(CC(C)C)S(=O)(=O)c2ccc(OC)cc2)c1 [Inhibitor 5h] | moderate antiviral activity |  |  |
